How the values were obtained:
human ES cells = assay: TeSR1 minus individual components, growth curve and FACS over three passages; type: cell-based
Description: FIG. 4 is a graphical representation of data showing that the medium described here results in robust growth of pluripotent stem cells in culture. Specifically, what is shown is growth curve analysis for human ES cells cultured in complete TeSR1 (positive control), and TeSR1 minus the following individual components: TGFβ, pipecolic acid (PA), GABA, LiCl and bFGF, and TeSR1 minus all five growth factors (TeSR1—ALL or negative control); 3×10^5 cells were plated at day 0 of each passage.
Triplicate wells of resulting cells were analyzed on day 6 of passage 3 by FACS for human ES cell markers. All results are presented for the H1 cell line; similar results were obtained for cell lines H7, H9 and H14.
Inventors used human ES cell lines H1, H7, H9 and H14 (Thomson, J. A. et al. Science 282, 1145-1147 (1998)) in a program of human ES cell media optimization that included modifications to the physiochemical environment, growth factor supplements and matrix components. To accomplish this, human ES cell lines H1, H7, H9, and H14 were cultured on Matrigel (Becton Dickinson) in fibroblast-conditioned medium as previously described (Xu, C. et al. Nature Biotechnology 19, 971-974 (2001)). Cells were transitioned into test media by direct passage from conditioned medium. Cultures of human ES cells were routinely passaged in clumps at approximately weekly intervals onto Matrigel or human matrix-coated plates by exposure to dispase (2.0 or 0.5 mg/ml respectively: Invitrogen). Following 7 minutes of dispase exposure, cells were rinsed 3 (three) times on the plate with medium, followed by gentle scraping to collect. Colonies were further broken up by gentle pipetting and then plated. The human matrix-coated plates were composed of 10 μg/cm^2 human collagen IV (Sigma or Becton Dickinson), 0.2 μg/cm^2 human vitronectin (Sigma), 5 μg/cm^2 human fibronectin (Sigma or Becton Dickinson) and 5 μg/cm^2 human laminin (Sigma). During the course of these studies we successfully used 4 lots of fibronectin, 2 lots of collagen, 3 lots of laminin, and 3 lots of vitronectin. For growth curve proliferation studies, 3-5×10^5 cells were plated on Day 0 of each passage into conditioned medium, TeSR1 or TeSR1 minus the following components: TGFβ, PA, GABA, LiCl and bFGF. Cells were cultured for three passages. Cells were harvested on Day 2-3 and Day 6-7 and counted using a Trypan Blue exclusion assay. At the end of passage three, cells were individualized by treatment with trypsin/EDTA and were analyzed by FACS for human ES cell markers Oct-4, SSEA-4, Tra 1-60 and Tra 1-81 as subsequently described.

[1] = test system: human pluripotent stem cells; assay: Omission of medium components, Oct-4 expression after seven days; type: cell-based; details: for effect of omitting constituent on percentage of undifferentiated cells: Oct-4 expression
Description: While a medium with all of the above constituents is sufficient and is preferred, not all of the components are necessary for the successful culture of human pluripotent stem cells. Depending on the amount of differentiated cells one is willing to tolerate, some of the components of the medium can be omitted, particularly if the medium is only used for a few passages. To further explore which constituents might be omitted, human pluripotent stem cells were cultured on variants of the above medium with differing components omitted. Two hundred thousand cells were plated and grown for seven days on each experimental medium, two wells per treatment. The cells were then assayed for expression of the transcription factor Oct-4, a recognized marker of undifferentiated cells.
The data from that experiment are presented graphically in FIG. 7, where the numbers of Oct-4 expressing cells in each experimental medium are presented as a fraction of that from the preferred medium TeSR1. […] The difference between the percentage of undifferentiated cells and the omitted constituent is quantitative. Regardless of the omitted constituent, the medium does work, at least to some degree for limited cell passages, without each of the omitted components.

ES03-DL1-K hES cells = assay: Cloning efficiency at different BME concentrations in TeSR1; type: cell-based, human
Description: FIG. 15 illustrates the growth of hES cells grown in mTeSR1 with five different concentrations of beta mercaptoethanol (βME). ES03-DL1-K were grown for one to five passages, visualized (a), counted to determine proliferation and cloning efficiency (b), and stained using […] for Oct-4 and SSEA-4 to identify differentiation status of the cells (c). The treatment concentrations consisted of 0, 1.75, 3.5, 7, and 14 μL βME/500 mL of total TeSR1 media. Results shown are the mean from growth in 3 wells/treatment. This experiment was repeated multiple times both with ES03-DL1-K and H9-WA09 cells with similar results.
Specifically, to optimize the physiochemical environment, human ES cells with an EGFP reporter gene and a neomycin resistance cassette under control of the endogenous Oct-4 gene were utilized for the physiochemical optimization assays. […] At the end of the growth period, cells from independent wells were individualized by treatment with trypsin/EDTA, counted and subjected to FACS analysis as subsequently described. To determine cloning efficiency of the cells, resulting colonies were stained with BCIP/NTB alkaline phosphatase substrate kit IV (Vector Laboratories) and counted. Percentages were determined by dividing colony number obtained by the initial number of cells plated. […]

| Compound | effect of removal of the factor from TeSR1 on culture performance (human ES cells) | effect of omitting constituent on percentage of undifferentiated cells [1] | effect of removal from TeSR1 on total cell number and percentage of cells expressing ES cell markers (human ES cells) | cloning efficiency of the cells (ES03-DL1-K hES cells; 0 and 1.75 μL BME/500 mL of total media, modified TeSR1) | increase in cloning efficiency (ES03-DL1-K hES cells; BME omitted or less than about 0.1 mM in TeSR1 vs same medium with higher than about 0.1 mM BME) | necessity of component (Oct-4 expressing cells as fraction of TeSR1) ([1]; short-term culture, high levels of FGF) |
| --- | --- | --- | --- | --- | --- | --- |
| NCCCC(=O)O [GABA, gamma-aminobutyric acid] | significantly decreased some parameter of culture performance | increased percentages of undifferentiated cells |  |  |  |  |
| [Cl-].[Li+] [LiCl, lithium chloride] | significantly decreased some parameter of culture performance | increased percentages of undifferentiated cells |  |  |  |  |
| bFGF: fibroblast growth factor, also referred to as FGF2 | significantly decreased some parameter of culture performance | increased percentages of undifferentiated cells | consistently decreased |  |  |  |
| OCCS [BME, β-mercaptoethanol] |  |  |  | large increases in cloning efficiency | at least 10% |  |
| O=C(O)C1CCCCN1 (stereo not shown) [PA, pipecolic acid] | significantly decreased some parameter of culture performance | increased percentages of undifferentiated cells |  |  |  |  |
| TGFβ: transforming growth factor beta | significantly decreased some parameter of culture performance |  |  |  |  | least necessary component |
